Data published in patent publication US7598286B2, “[(1H-indazol-3-yl)methyl]phenols and (hydroxyphenyl)(1H-indazol-3-yl)methanones” (Wyeth, priority 2004, dated 2009).
Read-outs that look alike come from different tables or passages of the source.

Tests used:
[1] = system: creatine kinase expression in Ad5-wt-hERα infected HAECT-1 cells; experiment: ER/CK: creatine kinase expression in Ad5-wt-ER infected HAECT-1 cells; assay type: cell-based, human; conditions: for EC50: Homo sapiens; for ER/CK % Eff*: efficacy relative to the maximal stimulation observed with E2
Method: (§1) T-175 flasks of 100% confluent HAECT-1 cells (immortalized human aortic endothelial cells) were washed with 8 ml of HBSS (HEPES buffered saline solution) and infected for four hours with 6 ml of a 1:10 dilution of Ad5-wt-hERα virus (an adenovirus transfection vector that mediates CMV promoter driven expression of human ERα) in phenol red free Endothelial Cell Basal medium (Clonetics, San Diego Calif., Catalog # CC-3129) containing 0.25% bovine serum albumin (EBM-BSA). After four hours, cells were washed with EBM-BSA and incubated overnight in the same medium. Following overnight incubation, cells were washed with EBM-BSA and infected for 2 hours with 6 ml of a 1:10 dilution of Ad5-3×(NFκB).Luc virus (Adenovirus luciferase expression vector driven by 3 repeats of the MHC NFκb site 5′ to the thymidine kinase promoter) in EBM-BSA. After two hours, cells were washed and incubated at 34° C. for 1 hour. Cells were then washed, trypsinized, counted and resuspended in 95% FBS/5% dimethylsulfoxide at a concentration of 4×10^6 cells/ml, frozen as 1 or 5 ml aliquots in cryo-vials and stored at −150° C. Control (no ER infection) cells were processed as above without Ad5-wt-hERα virus infection.
(§2) ERα infected HAECT-1 cells or control cells were thawed, diluted 42× in warm EBM-BSA, plated into 96-well plates at 0.1 ml/well and incubated for 4 h at 34° C. Test compounds were added to the cells as 2× stocks in EBM-BSA containing 2 ng/ml IL-1β (R&D Systems) and plates were returned to the incubator (34° C.). After 15-20 h, 100 μl aliquots of media were removed from the cells and assayed for IL-6 content using a BioSource human IL-6 ELISA Kit. Cells were subsequently washed with 300 μl of Dulbecco's phosphate buffered saline and lysed in 50 μl of Cell Culture Lysis Reagent (Promega). Luciferase was determined on a Wallac Victor^2 Luminometer (Gaithersburg, Md.) using 10 μl of lysate and mixing with 100 μl of Promega Luciferase Assay reagent. Creatine kinase was determined from the rate of increase in A340 following addition of 100 μl of CK assay reagent (Sigma, cat. No 47-10) to the remainder of the cell lysate.
(§3) For IC50 and EC50 calculations, mean IL-6, luciferase or CK values versus log10 of the compound concentration were fitted to a four parameter logistic equation. The IC50/EC50 value, ‘Hill slope’, upper and lower limits of the curve were iteratively estimated.

[2] = system: NF-κB luciferase reporter in Ad5-wt-hERα infected HAECT-1 cells; experiment: ER/NF-κB-luc: IL-1β induced NF-κB luciferase reporter in Ad5-wt-ER infected HAECT-1 cells; assay type: cell-based; conditions: Homo sapiens; for IC50: HAECT1, Ad5-wt-ER infected HAECT-1 cells, IL-1β, read-out: ER/NF-KB-luc IC50; for Emax: HAECT1, efficacy relative to the maximal inhibition observed with E2, read-out: ER/NF-KB-luc % Eff*
Method: as §1, §2, §3

TNF-α mRNA = experiment: NF-κB target gene expression in liver of mice fed a high fat diet: TNFa; assay type: in vivo, C57BL/6 mice; conditions: 10 mg/kg
Method: (§4) Ovariectomized C57BL/6 mice (16-20 g) (Taconic) were separated into groups of 8. After 5-7 days of recuperation, the mice were fed a chow diet or an atherogenic diet (15.75% fat, 1.25% cholesterol and 0.5% sodium cholate) (Purina diet #21539). EE or test compound was administered once daily by gavage in a methylcellulose/tween vehicle (0.1 ml per mouse) for 5 weeks. At the end of the experimental period, the liver was collected and uterine wet weight was recorded.
(§5) Liver total RNA was prepared by using Trizol reagent (BRL). Estrogen and compound regulation of NF-κB target genes were verified by real time RT-PCR using an ABI PRISM 7700 Sequence Detection System according to the manufacturer's protocol (Applied Biosystems). The data was analyzed using the Sequence Detector v1.7 software (Applied Biosystems) and normalized to GAPDH using the Applied Biosystems primer set.
(§6) To determine the ability of estrogens to regulate the development of diet-induced inflammation in the liver, gene expression changes resulting from the atherogenic diet were monitored. Ovariectomized C57BL/6 mice were fed either a chow or atherogenic diet and treated daily with EE (0.01 mg/kg) or test compound (Table 2).

MHC invariant chain mRNA = experiment: NF-κB target gene expression in liver of mice fed a high fat diet: MHC; assay type: in vivo, C57BL/6 mice; conditions: 10 mg/kg
Method: as §4, §5, §6

[3] = system: IL-6 expression in Ad5-wt-hERα infected HAECT-1 cells; experiment: ER/IL-6: IL-6 expression (ELISA) in Ad5-wt-ER infected HAECT-1 cells; assay type: cell-based, human; conditions: for IC50: IL-1β; for ER/IL-6 % Eff: efficacy relative to the maximal inhibition observed with E2
Method: as §1, §2, §3

RANTES mRNA = experiment: NF-κB target gene expression in liver of mice fed a high fat diet: RANTES; assay type: in vivo, C57BL/6 mice; conditions: 10 mg/kg
Method: as §4, §5, §6

VCAM-1 mRNA = experiment: NF-κB target gene expression in liver of mice fed a high fat diet: VCAM-1; assay type: in vivo, C57BL/6 mice; conditions: 10 mg/kg
Method: as §4, §5, §6

[4] = HAECT1, read-out: ER/CK EC50 (nM)
[5] = once daily by gavage, 5 weeks, ovariectomized mice on atherogenic diet, liver RT-PCR
[6] = Homo sapiens, HAECT1, Ad5-wt-ER infected HAECT-1 cells
[7] = Ad5-wt-ER infected HAECT-1 cells

| SMILES | melting point | IC50 [2] | Emax [2] | ER/CK EC50 (nM) [1, 7] | further results |
| --- | --- | --- | --- | --- | --- |
| C/C=C/Cn1nc(C(=O)c2cccc(O)c2)c2ccccc21 | 75 to 78 °C |  |  |  |  |
| CC(C)=CCn1nc(C(=O)c2cccc(O)c2)c2ccccc21 | 92 to 94 °C |  |  |  |  |
| Oc1cccc(Cc2n[nH]c3ccccc23)c1 [Example 1, 3-[(1H-indazol-3-yl)methyl]phenol] | 170 to 172 °C |  |  |  |  |
| CCCn1nc(C(=O)c2cccc(O)c2)c2ccccc21 [Example 3, (3-hydroxyphenyl)(1-propyl-1H-indazol-3-yl)methanone] |  | 722 nM | 70% |  | EC50 [1, 4]: 2640 nM; ER/CK % Eff* [1]: 35% |
| O=C(c1cccc(O)c1)c1nn(C2CCCC2)c2ccccc12 [Example 4, (1-cyclopentyl-1H-indazol-3-yl)(3-hydroxyphenyl)methanone] |  | 170 nM | 77% |  | EC50 [1, 4]: 1330 nM; ER/CK % Eff* [1]: 57%; TNFa % inhib (TNF-α mRNA; [5]): 45%; TNFa (eff %) (TNF-α mRNA; value in parentheses): 100%; MHC % inhib (MHC invariant chain mRNA; [5]): 60%; MHC (eff %) (MHC invariant chain mRNA; value in parentheses): 138%; IC50 [3, 6]: 66 nM; ER/IL-6 % Eff [3]: 109%; RANTES % inhib (RANTES mRNA; [5]): 67%; RANTES (eff %) (RANTES mRNA; value in parentheses): 151%; VCAM-1 % inhib (VCAM-1 mRNA; [5]): 59%; VCAM-1 (eff %) (VCAM-1 mRNA; value in parentheses): 100% |
| CC(C)n1nc(C(=O)c2cccc(O)c2)c2ccccc21 [Example 5, (3-hydroxyphenyl)(1-isopropyl-1H-indazol-3-yl)methanone] |  | 1070 nM | 83% |  | EC50 [1, 4]: 1790 nM; ER/CK % Eff* [1]: 55% |
| Oc1cccc(Cc2nn(C3CCCC3)c3ccccc23)c1 [Example 6, 3-[(1-cyclopentyl-1H-indazol-3-yl)methyl]phenol] |  | 570 nM | 54% | ia |  |
| O=C(c1ccc(O)cc1)c1n[nH]c2c(C(F)(F)F)cccc12 [Example 7, (4-hydroxyphenyl)[7-(trifluoromethyl)-1H-indazol-3-yl]methanone] |  | 1000 nM | 43% | ia |  |
| O=C(c1ccc(O)cc1)c1nn(C2CCCC2)c2c(C(F)(F)F)cccc12 [Example 8, [1-cyclopentyl-7-(trifluoromethyl)-1H-indazol-3-yl](4-hydroxyphenyl)methanone] | 225 to 226 °C | 94 nM | 87% | ia |  |
| CC(C)n1nc(C(=O)c2ccc(O)cc2)c2cccc(C(F)(F)F)c21 [Example 9, (4-hydroxyphenyl)[1-isopropyl-7-(trifluoromethyl)-1H-indazol-3-yl]methanone] |  | 107 nM | 80% | ia |  |
| O=C(c1cccc(O)c1)c1n[nH]c2c(C(F)(F)F)cccc12 [Example 10, (3-hydroxyphenyl)[7-(trifluoromethyl)-1H-indazol-3-yl]methanone] |  | 593 nM | 88% | ia |  |
| CCCn1nc(C(=O)c2cccc(O)c2)c2cccc(C(F)(F)F)c21 [Example 11, (3-hydroxyphenyl)[1-propyl-7-(trifluoromethyl)-1H-indazol-3-yl]methanone] | 118 °C | 198 nM | 82% | ia |  |
| O=C(c1cccc(O)c1)c1nn(C2CCCC2)c2c(C(F)(F)F)cccc12 [Example 12, [1-cyclopentyl-7-(trifluoromethyl)-1H-indazol-3-yl](3-hydroxyphenyl)methanone] | 152 °C | 54 nM | 73% |  | EC50 [1, 4]: 139 nM; ER/CK % Eff* [1]: 32% |
| CC(C)n1nc(C(=O)c2cccc(O)c2)c2cccc(C(F)(F)F)c21 [Example 13, (3-hydroxyphenyl)[1-isopropyl-7-(trifluoromethyl)-1H-indazol-3-yl]methanone] | 145 °C | 63 nM | 85% | ia |  |
| C=C(C)Cn1nc(C(=O)c2cccc(O)c2)c2ccccc21 [Example 14, (3-hydroxyphenyl)[1-(2-methylprop-2-enyl)-1H-indazol-3-yl]methanone] | 75 to 78 °C | 388 nM | 103% | ia |  |
| CC(C)Cn1nc(C(=O)c2cccc(O)c2)c2ccccc21 [Example 17, (3-hydroxyphenyl)(1-isobutyl-1H-indazol-3-yl)methanone] | 108 to 110 °C | 710 nM | 100% |  | EC50 [1, 4]: 1570 nM; ER/CK % Eff* [1]: 51% |
| C=CCn1nc(C(=O)c2cccc(O)c2)c2ccccc21 [Example 18, (1-allyl-1H-indazol-3-yl)(3-hydroxyphenyl)methanone] |  | 1240 nM | 92% | ia |  |
| O=C(c1cccc(O)c1)c1nn(Cc2ccccc2)c2ccccc12 [Example 19, (1-benzyl-1H-indazol-3-yl)(3-hydroxyphenyl)methanone] |  | 409 nM | 92% | ia |  |
| O=C(c1cccc(O)c1)c1nn(C2C=CCCC2)c2ccccc12 (centres unmarked) [Example 20, (1-cyclohex-2-en-1-yl-1H-indazol-3-yl)(3-hydroxyphenyl)methanone] | 140 to 141 °C | 155 nM | 87% | ia |  |
| COc1cccc(-n2nc(C(=O)c3cccc(O)c3)c3ccccc32)c1 [Example 22, (3-hydroxyphenyl)[1-(3-methoxyphenyl)-1H-indazol-3-yl]methanone] |  | 475 nM | 75% | ia |  |
| O=C(c1cccc(O)c1)c1c2ccccc2nn1-c1ccc(Br)cc1 [Example 23, [2-(4-bromophenyl)-2H-indazol-3-yl](3-hydroxyphenyl)methanone] |  | 82 nM | 79% | ia |  |
| C[C@]12CC[C@@H]3c4ccc(O)cc4CC[C@H]3[C@@H]1CC[C@@H]2O [Example E2, 17β-estradiol, reference compound] |  | ~1 nM | 100% |  | EC50 ([1]; HAECT1, Ad5-wt-ER infected HAECT-1 cells, read-out: ER/CK EC50): 5.8 nM; ER/CK % Eff* [1]: 100%; IC50 [3, 7]: 1.7 nM; IC50 [3, 6]: ~1 nM; ER/IL-6 % Eff [3]: 100% |
